Experimental data published in patent publication US20190315806A1, “POLYMYXIN DERIVATIVE, PREPARATION METHOD AND APPLICATION THEREOF” (priority 2016, published 2019).
Converted amounts (≈) assume the structure as drawn. Where a SMILES comes first, the peptide text is derived from it. Bridges are numbered along the chain shown (N, C = ends). [ ]: non-standard residue; d: D form. The star is where a group is joined. X2 = CC[C@H](C)CCCCC(=O)*; Octanoyl = CCCCCCCC(=O)*; Dab = NCC[C@H](N)C(=O)O

How the values were obtained:
Assay type in all cases: cell-based
[1] = system: Acinetobacter baumannii ATCC 19606; conditions: ATCC 19606
Method: (§1) The minimum inhibitory concentration (MIC) was determined by means of dish double dilution method using a Multipoint inoculator according to the CLSI recommended method. The compounds of the present invention (for example, the compounds prepared in the Embodiments) and the reference substances were diluted twice each time with the broth into various desired concentrations, and appropriate amounts were added to the dishes. Agar medium is melted, and then quantitatively injected into the dish containing the drug solution, and mixed. The final concentrations of the compounds of the invention (e.g., the compounds prepared in the Embodiments) and the controls were 0.03, 0.06, 0.125, 0.25 . . . 128 μg/mL, respectively. The test bacteria were cultured overnight with nutrient broth, brain heart infusion or HTM broth. During the tests, the bacterial solutions were diluted appropriately, and the test bacteria (inoculation amount 10^4 CFU/dot) were inoculated on the surface of the drug-containing agar by a multi-point inoculator. After drying, the bacterial was incubated for 18 to 24 hours at 35° C., the results were observed, the minimum concentrations of the compounds of the present invention (for example, the compounds prepared in the Embodiments) and the controls contained in the dishes with no growth of colonies were MICs.
(§2) The strains used in the antibacterial activity experiments were from the American Type Culture Collection (ATCC) and clinical isolates.
(§3) The strains used for the experiments on antibacterial activity included Escherichia coli ATCC 25922, Klebsiella pneumoniae ATCC BAA-2146 (NDM-1), Pseudomonas aeruginosa ATCC 27853, Acinetobacter baumannii ATCC 19606 and Staphylococcus epidermidis ATCC 12228.
(§4) Tested samples: polymyxin derivatives prepared according to the technical scheme of the present invention;
(§5) Controls: polymyxin B sulfate and colistin (polymyxin E sulfate).

[2] = system: Escherichia coli ATCC 25922; conditions: ATCC 25922
Method: as §1, §2, §3, §4, §5

[3] = system: Pseudomonas aeruginosa ATCC 27853; conditions: ATCC 27853
Method: as §1, §2, §3, §4, §5

[4] = system: Staphylococcus epidermidis ATCC 12228; conditions: ATCC 12228
Method: as §1, §2, §3, §4, §5

[5] = system: Klebsiella pneumoniae ATCC BAA-2146 (NDM-1); assay: Antibacterial activity, MIC by dish double dilution method; conditions: ATCC BAA-2146
Method: as §1, §2, §3, §4, §5

| SMILES | MIC A. baumannii ATCC 19606 [1] [µg/mL] | MIC E. coli ATCC 25922 [2] [µg/mL] | MIC P. aeruginosa ATCC 27853 [3] [µg/mL] | MIC S. epidermidis ATCC 12228 [4] [µg/mL] | MIC K. pneumoniae ATCC BAA-2146 (NDM-1) [5] [µg/mL] |
| --- | --- | --- | --- | --- | --- |
| CCCCCCCC(=O)N[C@@H](CCN)C(=O)N[C@H](C(=O)N[C@@H](CCN)C(=O)N[C@H]1CCNC(=O)[C@H]([C@@H](C)O)NC(=O)[C@H](CCN)NC(=O)[C@H](CCN)NC(=O)[C@H](CC(C)C)NC(=O)[C@@H](CC(C)C)NC(=O)[C@H](CCN)NC1=O)[C@@H](C)O [Compound 78, octanoyl-Dab-Thr-Dab-ring(4-10)[Dab-Dab-D-Leu-Leu-Dab-Dab-Thr]] (Octanoyl-[Dab]T[Dab][Dab][Dab][dL]L[Dab][Dab]T; lactam 4-C) | 0.5 (≈ 0.433 µM) | 0.5 (≈ 0.433 µM) | 1 (≈ 0.865 µM) | 32 (≈ 27.7 µM) | 0.5 (≈ 0.433 µM) |
| CCOc1ccc(C[C@H]2NC(=O)[C@H](CCN)NC(=O)[C@@H](NC(=O)[C@H](CCN)NC(=O)[C@@H](NC(=O)[C@H](CCN)NC(=O)CCCC[C@@H](C)CC)[C@@H](C)O)CCNC(=O)[C@H]([C@@H](C)O)NC(=O)[C@H](CCN)NC(=O)[C@H](CCN)NC(=O)[C@H](CC(C)C)NC2=O)cc1 [Compound 25, (S)-6-methyloctanoyl-Dab-Thr-Dab-ring(4-10)[Dab-Dab-D-Phe(4-OEt)-Lue-Dab-Dab-Thr]] (X2-[Dab]T[Dab][Dab][Dab][dY](Et)L[Dab][Dab]T; lactam 4-C) | 2 (≈ 1.6 µM) | 1 (≈ 0.802 µM) | 2 (≈ 1.6 µM) | 16 (≈ 12.8 µM) | 2 (≈ 1.6 µM) |
| CCCCCCCC(=O)N[C@@H](CCN)C(=O)N[C@H](C(=O)N[C@@H](CO)C(=O)N[C@H]1CCNC(=O)[C@H]([C@@H](C)O)NC(=O)[C@H](CCN)NC(=O)[C@H](CCN)NC(=O)[C@H](CC(C)C)NC(=O)[C@@H](Cc2ccccc2)NC(=O)[C@H](CCN)NC1=O)[C@@H](C)O [Compound 54, octanoyl-Dab-Thr-Ser-ring(4-10)[Dab-Dab-D-Phe-Leu-Dab-Dab-Thr]] (Octanoyl-[Dab]TS[Dab][Dab][dF]L[Dab][Dab]T; lactam 4-C) | 0.5 (≈ 0.425 µM) | 0.5 (≈ 0.425 µM) | 1 (≈ 0.85 µM) | 64 (≈ 54.4 µM) | 1 (≈ 0.85 µM) |
| CCCCCCCC(=O)N[C@@H](CCN)C(=O)N[C@H](C(=O)N[C@H](CO)C(=O)N[C@H]1CCNC(=O)[C@H]([C@@H](C)O)NC(=O)[C@H](CCN)NC(=O)[C@H](CCN)NC(=O)[C@H]([C@@H](C)O)NC(=O)[C@@H](Cc2ccccc2)NC(=O)[C@H](CCN)NC1=O)[C@@H](C)O [Compound 117, octanoyl-Dab-Thr-D-Ser-ring(4-10)[Dab-Dab-D-Phe-Thr-Dab-Dab-Thr]] (Octanoyl-[Dab]T[dS][Dab][Dab][dF]T[Dab][Dab]T; lactam 4-C) | 0.25 (≈ 0.215 µM) | 0.5 (≈ 0.429 µM) | 2 (≈ 1.72 µM) | >128 | 0.5 (≈ 0.429 µM) |
| CCCCCCCC(=O)N[C@@H](CCN)C(=O)N[C@H](C(=O)N[C@@H](CCN)C(=O)N[C@H]1CCNC(=O)[C@H](CC(C)C)NC(=O)[C@H](CCN)NC(=O)[C@H](CCN)NC(=O)[C@H](CC(C)C)NC(=O)[C@@H](Cc2ccccc2)NC(=O)[C@H](CCN)NC1=O)[C@@H](C)O [Compound 129, octanoyl-Dab-Thr-Dab-ring(4-10)[Dab-Dab-D-Phe-Lue-Dab-Dab-Lue]] (Octanoyl-[Dab]T[Dab][Dab][Dab][dF]L[Dab][Dab]L; lactam 4-C) | 4 (≈ 3.33 µM) | 4 (≈ 3.33 µM) | 4 (≈ 3.33 µM) | 8 (≈ 6.66 µM) | 4 (≈ 3.33 µM) |
